Measurements: patent US9758526B2, “Quinoline-substituted compound” (TAIHO PHARMACEUTICAL CO., LTD., priority 2013, dated 2017)

How the values were obtained:
[1] = test system: HCC827 expressing EGFR (d746-750); test: Growth inhibition, HCC827 expressing EGFR (d746-750); format: cell-based; details: Homo sapiens, HCC827, 72 h; cultured three days, CellTiter-Glo
Method: (§1) (1) A human […] lung cancer cell line NCI-H1975 expressing EGFR (T790M/L858R), (2) a human non-small cell lung cancer cell line HCC827 expressing EGFR (d746-750), and (3) a human epithelioid cancer cell line A431 expressing EGFR (WT) were each suspended in complete growth medium recommended by ATCC. The cell suspensions were seeded in each well of a 384-well flat microplate or a 96-well flat plate, and cultured in an incubator containing 5% carbon dioxide gas at 37° C. for one day. Each compound of the present invention was dissolved in DMSO, and serial dilutions of the test compound were prepared using DMSO (to a concentration 500 times the final concentration). The DMSO solution of the test compound or DMSO was diluted with complete growth medium, and the resulting solution was added to each well of the cell culture plate so that the final concentration of DMSO was 0.2%. Then, the cells were cultured in an incubator containing 5% carbon dioxide gas at 37° C. for three days. The number of cells was measured before the addition of the DMSO solution of the test compound, as well as after addition and culture by using a CellTiter-Glo Assay® (produced by Promega) according to a protocol recommended by Promega.
(§2) For each cell, the cell growth inhibition rates of the wells to which the test compounds at various concentrations were added were calculated by the following formula. Then, the obtained inhibition rates (%) at the respective concentrations were plotted for each test compound, and the GI50 value (nM), which is a test compound concentration at which the cell growth can be inhibited by 50%, was determined using XLfit curve-fitting software (IDBS). • Cell Growth Inhibition Rate (%)=(C−T)/(C−CO)×100 • T: Luminescence intensity of well cultured for three days after addition of the test compound solution • C: Luminescence intensity of well cultured for three days after addition of DMSO • C0: Luminescence intensity of well before addition of the test compound solution

[2] = test system: NCI-H1975 expressing EGFR (T790M/L858R); test: Growth inhibition, NCI-H1975 expressing EGFR (T790M/L858R); format: cell-based; details: Homo sapiens, NCI-H1975, 72 h; cultured three days, CellTiter-Glo
Method: as §1, §2

EGFR (d746-750/T790M) = target: T1, EGFR (d746-750/T790M) (Homo sapiens, UniProt P00533, DEL746-750/T790M); test: EGFR (d746-750/T790M) kinase inhibitory activity; format: biochemical; details: ATP 1.5 μM
T1 construct: purchased Carna Biosciences, Inc
Method: (§3) Among the materials of the inhibitory activity measurement, the substrate peptide and the kinase protein were obtained as follows. A peptide with biotinylated N-terminus (biotin-EEPLYWSFPAKKK) was synthesized with reference to FL-Peptide 22, a reagent for LabChip® series of PerkinElmer, Inc. For the kinase protein, a purified recombinant human EGFR (T790M/L858R) protein of Carna Biosciences, Inc. was purchased.
(§4) The inhibitory activity measurement was performed as follows. The compounds of the present invention were individually dissolved in dimethyl sulfoxide (DMSO), and serial dilutions of these compounds were prepared using DMSO. Subsequently, a solution containing the substrate peptide (final concentration: 250 nM), magnesium chloride (final concentration: 10 mM), manganese chloride (final concentration: 10 mM), and ATP (final concentration: 1 μM) in a buffer solution for kinase reaction (Carna Biosciences, Inc.) was mixed with the dilutions of the compounds (final concentration of DMSO upon kinase reaction: 2.5%) or DMSO (final concentration: 2.5%). EGFR (T790M/L858R) protein was further added thereto, and the mixtures were incubated at 25° C. for 120 minutes to carry out a kinase reaction. EDTA was added thereto to a final concentration of 24 mM to thereby terminate the reaction. A phosphorylated thyrosine detection solution containing europium (Eu)-labeled anti-phosphorylated tyrosine antibody PT66 (PerkinElmer, Inc.) and SureLight APC-SA (PerkinElmer, Inc.) was added to the reaction mixtures, and the mixtures were allowed to stand at room temperature for 2 hours or more. For the background, a sample to which EDTA was added before addition of EGFR (T790M/L858R) protein was incubated at 25° C. for 120 minutes, using DMSO instead of the DMSO solution of the compound. The detection solution was also added to this sample, and the mixture was allowed to stand for 2 hours or more. Finally, for all of the test samples, the amount of fluorescence at the time of irradiation of excitation light having a wavelength of 337 nm was measured at dual wavelengths of 620 nm and 665 nm by PHERAstar FS (BMG LABTECH), and a ratio of the fluorescence amounts at the two wavelengths was obtained as data.
(§5) Based on the above rates, phosphorylation inhibition rates (%) were calculated for the samples to which various concentrations of the compound solutions were added. Finally, the obtained reaction inhibition rates (%) at the respective concentrations were plotted for each compound, and the IC50 value (nM), which is a compound concentration at which phosphorylation by EGFR (T790M/L858R) is inhibited by 50%, was determined using XLfit curve-fitting software (IDBS).
The inhibitory activities of the compounds of the present invention against EGFR (d746-750/T790M) kinase activity were measured.
The materials, the measurement method, and the data analysis method were substantially the same as those shown in the above description regarding “Measurement of EGFR (T790M/L858R) Kinase Inhibitory Activity,” except that a purified recombinant human EGFR (d746-750/T790M) protein purchased from Carna Biosciences, Inc. was used as the kinase protein, and the measurement was performed with an ATP final concentration of 1.5 μM. Finally, the IC50 value (nM) of each compound with respect to EGFR (d746-750/T790M) was determined by data analysis.

EGFR (T790M/L858R) = target: T2, EGFR (T790M/L858R) (Homo sapiens, UniProt P00533, L858R/T790M); test: EGFR (T790M/L858R) kinase inhibitory activity; format: biochemical; details: ATP 1 μM, 25° C. for 120 minutes
T2 construct: purchased Carna Biosciences, Inc
Method: The inhibitory activities of the compounds of the present invention against EGFR (T790M/L858R) kinase activity were measured.
as §3, §4, §5

EGFR (WT) = target: T3, EGFR (WT) (Homo sapiens, UniProt P00533); test: EGFR (WT) kinase inhibitory activity; format: biochemical; details: substrate peptide 500 nM
T3 construct: expressing a cytoplasmic domain of human EGFR (WT) with its N-terminus fused to a FLAG tag; FLAG (N); made in house; host or cells: insect Sf9 cells, baculovirus expression system
Method: as §3, §4, §5
The inhibitory activities of the compounds of the present invention against EGFR (WT) kinase activity were measured.
The materials, the measurement method, and the data analysis method were substantially the same as those shown in the above description regarding “Measurement of EGFR (T790M/L858R) Kinase Inhibitory Activity,” except that a kinase protein prepared by expressing a cytoplasmic domain of human EGFR (WT) with its N-terminus fused to a FLAG tag in insect Sf9 cells using a baculovirus expression system and then purifying it with anti-FLAG antibody agarose (Sigma-Aldrich) was used as the kinase protein, the final concentration of the substrate peptide was 500 nM, and the final concentration of ATP was […]. Finally, the IC50 value (nM) of each compound with respect to EGFR (WT) was determined by data analysis.

[3] = test system: A431 expressing EGFR (WT); test: Growth inhibition, A431 expressing EGFR (WT); format: cell-based; details: Homo sapiens, A-431, 72 h; cultured three days, CellTiter-Glo
Method: as §1, §2

EGFR (L858R) = target: T4, EGFR (L858R) (Homo sapiens, UniProt P00533, L858R); test: EGFR (L858R) kinase inhibitory activity; format: biochemical; details: ATP 4 μM
T4 construct: purchased Carna Biosciences, Inc
Method: as §3, §4, §5
The inhibitory activities of the compounds of the present invention against EGFR (L858R) kinase activity were measured.
The materials, the measurement method, and the data analysis method were substantially the same as those shown in the above description regarding “Measurement of EGFR (T790M/L858R) Kinase Inhibitory Activity,” except that a purified recombinant human EGFR (L858R) protein purchased from Carna Biosciences, Inc. was used as the kinase protein, and the measurement was performed with ATP at a final concentration of 4 μM. Finally, the IC50 value (nM) of each compound with respect to EGFR (L858R) was determined by data analysis.

EGFR (d746-750) = target: T5, EGFR (d746-750) (Homo sapiens, UniProt P00533, DEL746-750); test: EGFR (d746-750) kinase inhibitory activity; format: biochemical; details: ATP 5 μM, kinase reaction 90 minutes
T5 construct: purchased Carna Biosciences, Inc
Method: as §3, §4, §5
The inhibitory activities of the compounds of the present invention against EGFR (d746-750) kinase activity were measured.
The materials, the measurement method, and the data analysis method were substantially the same as those shown in the above description regarding “Measurement of EGFR (T790M/L858R) Kinase Inhibitory Activity,” except that a purified recombinant human EGFR (d746-750) protein purchased from Carna Biosciences, Inc. was used as the kinase protein, the measurement was performed with ATP at a final concentration of 5 μM, and the incubation for the kinase reaction was performed for 90 minutes. Finally, the IC50 value (nM) of each compound with respect to EGFR (d746-750) was determined by data analysis.

T3 sequence (P00533 669-1210 limits assumed): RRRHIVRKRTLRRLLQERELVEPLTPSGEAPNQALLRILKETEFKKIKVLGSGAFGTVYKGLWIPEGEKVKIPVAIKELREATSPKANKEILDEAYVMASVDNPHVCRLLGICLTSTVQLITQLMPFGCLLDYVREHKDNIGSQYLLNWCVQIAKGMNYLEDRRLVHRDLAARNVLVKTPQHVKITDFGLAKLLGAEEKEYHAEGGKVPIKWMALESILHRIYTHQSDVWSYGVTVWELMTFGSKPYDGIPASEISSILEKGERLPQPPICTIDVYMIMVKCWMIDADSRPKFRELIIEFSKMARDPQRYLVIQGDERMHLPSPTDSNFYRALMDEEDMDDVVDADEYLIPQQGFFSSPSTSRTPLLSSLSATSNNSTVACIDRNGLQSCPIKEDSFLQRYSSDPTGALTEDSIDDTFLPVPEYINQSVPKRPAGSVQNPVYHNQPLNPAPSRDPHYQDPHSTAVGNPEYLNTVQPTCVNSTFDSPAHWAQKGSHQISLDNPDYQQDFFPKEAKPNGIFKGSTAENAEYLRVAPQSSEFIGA
T1 sequence (P00533 with tags, fused parts or gaps DEL746-750/T790M limits assumed): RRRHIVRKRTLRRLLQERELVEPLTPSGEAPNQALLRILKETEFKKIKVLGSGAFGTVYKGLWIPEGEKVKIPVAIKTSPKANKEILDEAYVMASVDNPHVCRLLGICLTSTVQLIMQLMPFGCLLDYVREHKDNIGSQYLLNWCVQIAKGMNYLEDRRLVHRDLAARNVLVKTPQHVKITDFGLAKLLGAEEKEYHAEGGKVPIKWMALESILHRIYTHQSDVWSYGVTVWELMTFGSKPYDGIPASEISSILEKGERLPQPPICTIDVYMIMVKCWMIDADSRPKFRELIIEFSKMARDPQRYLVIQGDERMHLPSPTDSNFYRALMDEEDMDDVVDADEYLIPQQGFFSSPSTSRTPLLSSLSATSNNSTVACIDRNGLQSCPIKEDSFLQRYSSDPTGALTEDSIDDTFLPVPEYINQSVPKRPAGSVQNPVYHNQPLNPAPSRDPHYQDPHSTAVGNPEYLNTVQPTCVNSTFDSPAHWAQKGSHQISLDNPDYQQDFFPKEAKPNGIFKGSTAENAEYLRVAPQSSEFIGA
T5 sequence (P00533 with tags, fused parts or gaps DEL746-750 limits assumed): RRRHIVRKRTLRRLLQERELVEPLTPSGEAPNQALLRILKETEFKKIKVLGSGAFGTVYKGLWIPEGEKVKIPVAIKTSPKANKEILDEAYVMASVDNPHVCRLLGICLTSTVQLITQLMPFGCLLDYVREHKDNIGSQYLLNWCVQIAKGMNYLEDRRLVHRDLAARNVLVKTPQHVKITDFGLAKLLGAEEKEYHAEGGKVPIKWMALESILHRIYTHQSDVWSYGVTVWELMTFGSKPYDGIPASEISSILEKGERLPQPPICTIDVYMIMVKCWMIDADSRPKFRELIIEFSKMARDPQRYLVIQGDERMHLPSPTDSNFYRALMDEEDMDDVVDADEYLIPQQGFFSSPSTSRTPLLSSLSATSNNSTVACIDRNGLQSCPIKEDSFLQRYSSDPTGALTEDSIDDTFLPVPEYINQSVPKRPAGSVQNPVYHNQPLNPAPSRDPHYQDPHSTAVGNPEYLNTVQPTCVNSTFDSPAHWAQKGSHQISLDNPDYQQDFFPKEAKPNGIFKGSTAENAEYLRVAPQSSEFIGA
T2 sequence (P00533 25-1210 T790M/L858R): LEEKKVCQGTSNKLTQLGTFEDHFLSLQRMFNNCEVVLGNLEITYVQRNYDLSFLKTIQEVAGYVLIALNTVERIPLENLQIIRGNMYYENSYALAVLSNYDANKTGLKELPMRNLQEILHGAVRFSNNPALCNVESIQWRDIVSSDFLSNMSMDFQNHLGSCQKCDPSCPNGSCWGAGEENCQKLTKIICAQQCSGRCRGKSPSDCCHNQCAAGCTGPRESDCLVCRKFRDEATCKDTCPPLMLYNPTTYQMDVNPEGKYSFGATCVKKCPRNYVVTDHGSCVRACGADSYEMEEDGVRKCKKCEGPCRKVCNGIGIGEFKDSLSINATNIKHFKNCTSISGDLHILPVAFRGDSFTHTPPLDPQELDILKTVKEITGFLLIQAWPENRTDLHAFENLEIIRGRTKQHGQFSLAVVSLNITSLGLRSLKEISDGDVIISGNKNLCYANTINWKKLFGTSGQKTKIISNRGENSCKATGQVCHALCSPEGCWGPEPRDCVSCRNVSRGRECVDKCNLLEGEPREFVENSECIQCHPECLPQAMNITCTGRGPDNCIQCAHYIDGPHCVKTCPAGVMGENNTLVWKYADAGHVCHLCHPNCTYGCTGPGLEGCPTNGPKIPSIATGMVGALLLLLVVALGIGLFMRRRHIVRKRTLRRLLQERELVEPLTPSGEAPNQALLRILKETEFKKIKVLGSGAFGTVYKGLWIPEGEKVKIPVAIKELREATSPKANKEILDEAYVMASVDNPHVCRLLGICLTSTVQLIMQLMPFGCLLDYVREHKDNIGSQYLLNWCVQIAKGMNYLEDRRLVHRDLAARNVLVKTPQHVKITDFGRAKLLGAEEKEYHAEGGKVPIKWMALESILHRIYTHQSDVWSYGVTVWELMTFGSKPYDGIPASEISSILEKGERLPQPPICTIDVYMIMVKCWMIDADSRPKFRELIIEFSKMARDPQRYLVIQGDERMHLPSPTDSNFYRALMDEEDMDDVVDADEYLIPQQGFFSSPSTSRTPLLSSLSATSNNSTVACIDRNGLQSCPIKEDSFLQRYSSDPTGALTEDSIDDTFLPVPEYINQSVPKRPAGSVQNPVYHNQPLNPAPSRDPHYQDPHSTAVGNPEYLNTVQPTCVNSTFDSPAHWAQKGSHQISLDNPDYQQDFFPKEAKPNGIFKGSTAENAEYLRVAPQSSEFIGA
T4 sequence (P00533 25-1210 L858R): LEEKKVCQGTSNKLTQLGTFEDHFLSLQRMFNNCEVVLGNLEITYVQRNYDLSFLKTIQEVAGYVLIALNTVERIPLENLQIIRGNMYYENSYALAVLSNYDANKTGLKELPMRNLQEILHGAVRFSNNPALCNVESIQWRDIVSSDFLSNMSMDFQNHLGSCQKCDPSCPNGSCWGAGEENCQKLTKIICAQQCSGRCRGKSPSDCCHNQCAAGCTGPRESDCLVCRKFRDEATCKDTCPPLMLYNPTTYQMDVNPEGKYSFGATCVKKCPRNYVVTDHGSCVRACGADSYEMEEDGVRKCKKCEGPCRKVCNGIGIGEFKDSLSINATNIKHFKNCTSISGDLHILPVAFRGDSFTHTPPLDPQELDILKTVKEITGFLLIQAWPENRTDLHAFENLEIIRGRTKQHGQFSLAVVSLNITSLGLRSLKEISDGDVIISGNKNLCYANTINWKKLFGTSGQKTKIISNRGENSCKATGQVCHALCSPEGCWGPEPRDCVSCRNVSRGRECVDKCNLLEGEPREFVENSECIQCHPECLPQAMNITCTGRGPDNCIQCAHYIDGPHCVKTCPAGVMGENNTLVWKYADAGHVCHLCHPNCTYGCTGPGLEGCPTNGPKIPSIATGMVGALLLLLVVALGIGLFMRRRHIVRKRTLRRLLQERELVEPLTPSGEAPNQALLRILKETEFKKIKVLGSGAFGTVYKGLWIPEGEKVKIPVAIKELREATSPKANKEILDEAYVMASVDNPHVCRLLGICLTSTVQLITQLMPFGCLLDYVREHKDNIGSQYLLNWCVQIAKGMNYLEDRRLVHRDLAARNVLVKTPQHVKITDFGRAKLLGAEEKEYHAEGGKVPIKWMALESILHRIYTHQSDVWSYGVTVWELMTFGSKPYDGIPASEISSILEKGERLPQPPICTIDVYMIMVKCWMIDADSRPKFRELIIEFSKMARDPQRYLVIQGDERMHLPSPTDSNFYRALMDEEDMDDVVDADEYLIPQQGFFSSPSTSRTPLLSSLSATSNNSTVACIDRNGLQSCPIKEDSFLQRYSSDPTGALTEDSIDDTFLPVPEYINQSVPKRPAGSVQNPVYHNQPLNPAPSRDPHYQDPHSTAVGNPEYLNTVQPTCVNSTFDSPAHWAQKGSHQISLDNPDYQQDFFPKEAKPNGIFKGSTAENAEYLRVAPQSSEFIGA

GI50 [1] [nM] | GI50 [2] [nM] | IC50 (EGFR (d746-750/T790M)) [nM] | IC50 (EGFR (T790M/L858R)) [nM] | IC50 (EGFR (WT)) [nM] | GI50 [3] [nM] | IC50 (EGFR (L858R)) [nM] | IC50 (EGFR (d746-750)) [nM] | Structure (SMILES)
7.9 | 240 | 0.29 | 0.66 | 11 | 3500 | 1.2 | 0.75 | C=C1c2c(-c3cnc4ccccc4c3)c3c(N)ncnc3n2C[C@H]1NC(=O)/C=C/CN(C)C(C)C [Example 12, (S,E)-N-(4-amino-6-methylene-5-(quinolin-3-yl)-7,8-dihydro-6H-pyrimido[5,4-b]pyrrolizin-7-yl)-4-(isopropyl(methyl)amino)but-2-enamide]
5.7 | 56 | 0.23 | 0.35 | 5.5 | 1500 | 0.37 | 0.33 | C=CC(=O)N(C)[C@@H]1CC(=C)c2c(-c3cnc4ccccc4c3)c3c(N)ncnc3n2C1 [Example 22, (R)—N-(4-amino-6-methylene-5-(quinolin-3-yl)-6,7,8,9-tetrahydropyrimido[5,4-b]indolizin-8-yl)-N-methylacrylamide]
3.3 | 54 | < 0.15 | 0.24 | 4.9 | 520 | 0.45 | 0.24 | C=C1c2c(-c3cnc4ccccc4c3)c3c(N)ncnc3n2C[C@H]1NC(=O)/C=C\Cl [Example 6, (S,Z)—N-(4-amino-6-methylene-5-(quinolin-3-yl)-7,8-dihydro-6H-pyrimido[5,4-b]pyrrolizin-7-yl)-3-chloroacrylamide]
5.6 | 49 | 0.28 | 0.26 | 2.2 | 990 | 0.27 | 0.42 | C=CC(=O)N[C@H]1C/C(=C\C)c2c(-c3cnc4ccccc4c3)c3c(N)ncnc3n2C1 [Example 19, (S,E)-N-(4-amino-6-ethylidene-5-(quinolin-3-yl)-6,7,8,9-tetrahydropyrimido[5,4-b]indolizin-8-yl)acrylamide]
8.1 | 310 | 0.61 | 1.5 | 22 | 4400 | 2.6 | 1.8 | C=C1c2c(-c3cnc4ccccc4c3)c3c(N)ncnc3n2C[C@H]1NC(=O)/C=C/CN(CC)CC [Example 10, (S,E)-N-(4-amino-6-methylene-5-(quinolin-3-yl)-7,8-dihydro-6H-pyrimido[5,4-b]pyrrolizin-7-yl)-4-(diethylamino)but-2-enamide]
160 | 2900 | 11 | 23 | 580 | > 10000 | 50 | 39 | C=CC(=O)N[C@@H]1CC(=C)c2c(-c3cnc4ccccc4c3)c3c(N)ncnc3n2C1 [Example 17, (R)—N-(4-amino-6-methylene-5-(quinolin-3-yl)-6,7,8,9-tetrahydropyrimido[5,4-b]indolizin-8-yl)acrylamide]
8.9 | 160 | 1.3 | 4.7 | 68 | 4000 | 12 | 4.5 | C=CC(=O)N[C@@H]1CCn2c(c(-c3cnc4ccccc4c3)c3c(N)ncnc32)C(=C)C1 [Example 18, (S)—N-(4-amino-6-methylene-5-(quinolin-3-yl)-7,8,9,10-tetrahydro-6H-pyrimido[5′,4′:4,5]pyrrolo[1,2-a]azepin-8-yl)acrylamide]
8.1 | 51 | < 0.15 | < 0.15 | 0.78 | 2200 | < 0.15 | < 0.15 | C=C1c2c(-c3cnc4ccccc4c3)c3c(N)ncnc3n2C[C@H]1NC(=O)/C=C/Cl [Example 5, (S,E)-N-(4-amino-6-methylene-5-(quinolin-3-yl)-7,8-dihydro-6H-pyrimido[5,4-b]pyrrolizin-7-yl)-3-chloroacrylamide]

Structure (SMILES) | GI50 [1] [nM] | GI50 [2] [nM] | IC50 (EGFR (d746-750/T790M)) [nM] | IC50 (EGFR (T790M/L858R)) [nM] | IC50 (EGFR (WT)) [nM] | GI50 [3] [nM] | IC50 (EGFR (L858R)) [nM] | IC50 (EGFR (d746-750)) [nM]
C=CC(=O)N[C@@H]1C=C(C)c2c(-c3cnc4ccccc4c3)c3c(N)ncnc3n2C1 [Example 16, (R)—N-(4-amino-6-methyl-5-(quinolin-3-yl)-8,9-dihydropyrimido[5,4-b]indolizin-8-yl)acrylamide] | 27 | 600 | 3 | 11 | 480 | > 10000 | 39 | 15
